Tested on: CHD (fatal CHD, definite non-fatal MI, or revascularization)
Experiment: CARE: SNP by pravastatin treatment interaction, logistic regression (synergy index), CHD endpoint
Format: in vivo, human
Details: for OR (synergy index, SNP by pravastatin treatment interaction): CARE; for OR (synergy index), CARE, Prava vs Placebo: CHD endpoint
Source text: CARE was a secondary prevention trial and WOSCOPS was a primary prevention trial.
The CHD endpoint was defined in the analyses herein of CARE as a composite endpoint of fatal CHD, definite non-fatal MI, or revascularization, and was defined in the analyses herein of WOSCOPS as a composite endpoint of death from CHD, nonfatal MI, or revascularization. In both the CARE and WOSCOPS analyses herein, the CVD endpoint was defined as a composite endpoint of CHD or stroke. […] Revascularization, which can include percutaneous transluminal coronary angioplasty (PTCA), stent placement, and coronary artery bypass graft (CABG), are medical interventions that indicate the presence of CHD.
Cohort and case-only study designs were used to identify SNPs associated with response to statin treatment.
For each SNP, a logistic regression model having treatment status as the dependent variable and SNP as the independent predictor variable was performed, with terms for age, sex and race included in the model as covariates. The anti-log of the regression coefficient corresponding to the SNP is an estimate of the synergy index (SI) (Davis et al., “Imputing gene-treatment interactions when the genotype distribution is unknown using case-only and putative placebo analyses-a new method for the Genetics of Hypertension Associated Treatment (GenHAT) study”, Statistics in Medicine 23: (2004), pages 2413-2427). The SI is a ratio of odds ratios: for example in the CARE and WOSCOPS studies, the SI represents the factor by which the odds-ratio of statin treatment, compared with placebo, among major homozygous individuals is multiplied by in order to obtain the odds-ratio of treatment vs. placebo among heterozygous individuals; and multiplied by a second time to obtain the odds-ratio of treatment vs. placebo in minor homozygous individuals. The case-only study design results in a valid estimate of the SI under the assumption that genotype and treatment are independent in the population. In a randomized clinical trial, genotype and treatment are independent by design. The p-value for the regression coefficient corresponding to the SNP results from a test of the null hypothesis that the regression coefficient is equal to zero (SI is equal to one) and thus small p-values indicate the SI is unlikely equal to one and that the effect of treatment likely differs by genotype.
A case-only study design was used to test whether the reduction of CHD events by statin therapy (for CARE and WOSCOPS studies) differed according to genotype (a treatment by SNP interaction) for each SNP evaluated in the study.

## CC[C@H](C)C(=O)O[C@H]1C[C@H](O)C=C2C=C[C@H](C)[C@H](CC[C@@H](O)C[C@@H](O)CC(=O)O)[C@H]21 [Pravastatin, pravastatin]
rs992695, Imputed, allele C, model ADD, NMISS 790, 95% CI 0.4976-0.8019
  OR (synergy index, SNP by pravastatin treatment interaction): 0.6317
rs992695, Imputed, allele C, model DOM, NMISS 790, 95% CI 0.4546-0.8068
  OR (synergy index, SNP by pravastatin treatment interaction): 0.6056
rs9881685, Imputed, allele A, model ADD, NMISS 799, 95% CI 0.3695-0.7488
  OR (synergy index, SNP by pravastatin treatment interaction): 0.526
rs9881685, Imputed, allele A, model DOM, NMISS 799, 95% CI 0.3327-0.7106
  OR (synergy index, SNP by pravastatin treatment interaction): 0.4862
rs9936999, Imputed, allele G, model DOM, NMISS 485, 95% CI 1.294-2.746
  OR (synergy index, SNP by pravastatin treatment interaction): 1.885
SNP rs198462 (A1 G, A2 A), rec model, Caseonly
  OR (synergy index), CARE, Prava vs Placebo: 1.57
SNP rs198476 (A1 G, A2 A), rec model, cohort
  OR (synergy index), CARE, Prava vs Placebo: 1.58
SNP rs471579 (A1 A, A2 C), add model, Caseonly
  OR (synergy index), CARE, Prava vs Placebo: 1.26
SNP rs1324012 (A1 A, A2 G), add model, Caseonly
  OR (synergy index), CARE, Prava vs Placebo: 0.78
SNP rs1917527 (A1 A, A2 C), rec model, Caseonly
  OR (synergy index), CARE, Prava vs Placebo: 0.34
SNP rs2768652 (A1 C, A2 T), add model, cohort
  OR (synergy index), CARE, Prava vs Placebo: 1.22
SNP rs6563805 (A1 A, A2 G), add model, cohort
  OR (synergy index), CARE, Prava vs Placebo: 0.76
SNP rs7873371 (A1 A, A2 G), add model, Caseonly
  OR (synergy index), CARE, Prava vs Placebo: 1.25
SNP rs12553453 (A1 C, A2 A), add model, cohort
  OR (synergy index), CARE, Prava vs Placebo: 1.22
SNP rs12635482 (A1 C, A2 A), rec model, cohort
  OR (synergy index), CARE, Prava vs Placebo: 0.54
rs1948 allele A vs G (ref), Source CaseOnly
  CARE OR: 1.52
rs151806 allele G vs A (ref), Source cohort
  CARE OR: 0.60
rs205279 allele A vs G (ref), Source Caseonly
  CARE OR: 1.94
rs238272 allele A vs G (ref), Source CaseOnly
  CARE OR: 1.44
rs312929 allele G vs A (ref), Source cohort
  CARE OR: 0.72
rs316720 allele G vs A (ref), Source cohort
  CARE OR: 0.67
rs331555 allele A vs C (ref), Source cohort
  CARE OR: 0.72
rs354342 allele A vs G (ref), Source Caseonly
  CARE OR: 0.70
rs453625, allele A1 A (non-ref), A2 G (ref), source cohort, endpoint/model not given
  CARE OR: 0.66
rs610118 allele G vs A (ref), Source cohort
  CARE OR: 0.43
rs669684 allele G vs A (ref), Source cohort
  CARE OR: 0.69
rs842796 allele A vs G (ref), Source cohort
  CARE OR: 1.72
rs886469 allele G vs A (ref), Source cohort
  CARE OR: 0.70
rs969356 allele G vs A (ref), Source cohort
  CARE OR: 0.69
rs1035618 allele A vs C (ref), Source Caseonly
  CARE OR: 1.38
rs1076733, allele A1 A (non-ref), A2 G (ref), source cohort, endpoint/model not given
  CARE OR: 0.70
rs1182878, allele A1 A (non-ref), A2 G (ref), source cohort, endpoint/model not given
  CARE OR: 0.79
rs1343563 allele C vs A (ref), Source cohort
  CARE OR: 0.61
rs1349282 allele A vs G (ref), Source cohort
  CARE OR: 0.55
rs1382787 allele G vs A (ref), Source cohort
  CARE OR: 1.37
rs1474396, allele A1 A (non-ref), A2 C (ref), source cohort, endpoint/model not given
  CARE OR: 1.35
rs1615197 allele G vs A (ref), Source CaseOnly
  CARE OR: 1.54
rs1884897 allele A vs G (ref), Source cohort
  CARE OR: 2.24
rs2008165 allele G vs A (ref), Source cohort
  CARE OR: 0.57
rs2023650 allele A vs G (ref), Source cohort
  CARE OR: 0.76
rs2060411 allele A vs G (ref), Source cohort
  CARE OR: 1.37
rs2104506 allele A vs C (ref), Source cohort
  CARE OR: 0.75
rs2129571, allele A1 A (non-ref), A2 G (ref), source cohort, endpoint/model not given
  CARE OR: 0.62
rs2145540 allele A vs G (ref), Source cohort
  CARE OR: 0.51
rs2268650 allele A vs G (ref), Source cohort
  CARE OR: 0.64
rs2273816 allele A vs G (ref), Source CaseOnly
  CARE OR: 1.56
rs2290193, allele A1 C (non-ref), A2 A (ref), source cohort, endpoint/model not given
  CARE OR: 0.53
rs2376764 allele A vs G (ref), Source Caseonly
  CARE OR: 0.61
rs2418412 allele G vs A (ref), Source cohort
  CARE OR: 2.20
rs2483641, allele A1 A (non-ref), A2 G (ref), source cohort, endpoint/model not given
  CARE OR: 0.65
rs2534752 allele G vs A (ref), Source cohort
  CARE OR: 1.60
rs2626130 allele G vs A (ref), Source cohort
  CARE OR: 1.29
rs2695026 allele A vs G (ref), Source Caseonly
  CARE OR: 0.70
rs2793086 allele C vs A (ref), Source cohort
  CARE OR: 0.61
rs2941528 allele A vs G (ref), Source CaseOnly
  CARE OR: 0.72
rs3000490 allele G vs A (ref), Source cohort
  CARE OR: 1.45
rs3213616 allele A vs G (ref), Source cohort
  CARE OR: 0.62
rs3732788 allele G vs A (ref), Source cohort
  CARE OR: 0.56
rs3798544 allele A vs G (ref), Source cohort
  CARE OR: 1.47
rs3998860 allele A vs G (ref), Source cohort
  CARE OR: 0.58

Source: patent publication US10563263B2, “Genetic polymorphisms associated with statin response and cardiovascular diseases, methods of detection and uses thereof” (CELERA CORPORATION, priority 2010, dated 2020)
